Source: the NIST ThermoML archive (doi:10.1016/j.jct.2003.11.008)

Assays:
[1] = xn = mol fraction of the nth substance listed; details: 318.15 K, 101.3 kPa, Liquid
[2] = excess molar enthalpy (molar enthalpy of mixing); xn = mol fraction of the nth substance listed; details: 318.15 K, 101.3 kPa, Liquid

CCCCCCCCCCC [undecane] + CCCCOC(C)=O
Details	excess molar enthalpy [kcal/mol]	excess molar volume [m3/mol]
[1], x2 = 0.0356	–	1.49e-07
[1], x2 = 0.0842	–	3.26e-07
[1], x2 = 0.1543	–	5.21e-07
[1], x2 = 0.2226	–	6.82e-07
[1], x2 = 0.288	–	7.97e-07
[1], x2 = 0.35	–	8.56e-07
[1], x2 = 0.407	–	9.28e-07
[1], x2 = 0.4636	–	9.43e-07
[1], x2 = 0.5172	–	9.66e-07
[1], x2 = 0.5676	–	9.44e-07
[1], x2 = 0.6153	–	9.27e-07
[1], x2 = 0.6613	–	8.79e-07
[1], x2 = 0.7042	–	8.17e-07
[1], x2 = 0.7392	–	7.75e-07
[1], x2 = 0.8289	–	5.74e-07
[1], x2 = 0.8978	–	3.84e-07
[1], x2 = 0.9408	–	2.33e-07
[2], x2 = 0.0677	0.08	–
[2], x2 = 0.1493	0.151	–
[2], x2 = 0.2299	0.21	–
[2], x2 = 0.3113	0.255	–
[2], x2 = 0.3836	0.282	–
[2], x2 = 0.4482	0.296	–
[2], x2 = 0.5078	0.3	–
[2], x2 = 0.5555	0.295	–
[2], x2 = 0.5708	0.292	–
[2], x2 = 0.6136	0.28	–
[2], x2 = 0.6586	0.265	–
[2], x2 = 0.7055	0.248	–
[2], x2 = 0.7534	0.225	–
[2], x2 = 0.7837	0.206	–
[2], x2 = 0.832	0.173	–
[2], x2 = 0.8778	0.135	–
[2], x2 = 0.9233	0.0902	–
[2], x2 = 0.9637	0.0459	–

CCCCCCCCCCCCCCC [pentadecane] + COC(C)=O
Details	excess molar enthalpy [kcal/mol]	excess molar volume [m3/mol]
[1], x2 = 0.1527	–	8.72e-07
[1], x2 = 0.2889	–	1.467e-06
[1], x2 = 0.3786	–	1.739e-06
[1], x2 = 0.4627	–	1.898e-06
[1], x2 = 0.5368	–	1.979e-06
[1], x2 = 0.5993	–	2.002e-06
[1], x2 = 0.6511	–	1.945e-06
[1], x2 = 0.6955	–	1.858e-06
[1], x2 = 0.7356	–	1.746e-06
[1], x2 = 0.777	–	1.644e-06
[1], x2 = 0.8099	–	1.512e-06
[1], x2 = 0.8412	–	1.386e-06
[1], x2 = 0.8595	–	1.259e-06
[1], x2 = 0.9126	–	9.19e-07
[1], x2 = 0.9511	–	5.84e-07
[1], x2 = 0.9777	–	2.73e-07
[2], x2 = 0.091	0.14	–
[2], x2 = 0.1824	0.272	–
[2], x2 = 0.2689	0.391	–
[2], x2 = 0.3572	0.488	–
[2], x2 = 0.4282	0.549	–
[2], x2 = 0.4946	0.586	–
[2], x2 = 0.5472	0.6	–
[2], x2 = 0.5908	0.601	–
[2], x2 = 0.6306	0.594	–
[2], x2 = 0.6559	0.584	–
[2], x2 = 0.6897	0.567	–
[2], x2 = 0.7229	0.544	–
[2], x2 = 0.7578	0.52	–
[2], x2 = 0.7947	0.484	–
[2], x2 = 0.8299	0.438	–
[2], x2 = 0.8675	0.385	–
[2], x2 = 0.905	0.316	–
[2], x2 = 0.94	0.238	–
[2], x2 = 0.9723	0.148	–

CCCCCOC(C)=O [pentyl ethanoate] + CCCCCCCCCCCCC
Details	excess molar enthalpy [kcal/mol]	excess molar volume [m3/mol]
[1], x1 = 0.0955	–	3.07e-07
[1], x1 = 0.1575	–	4.63e-07
[1], x1 = 0.2323	–	6.22e-07
[1], x1 = 0.2961	–	7.29e-07
[1], x1 = 0.3517	–	7.96e-07
[1], x1 = 0.4152	–	8.59e-07
[1], x1 = 0.4689	–	8.87e-07
[1], x1 = 0.5228	–	8.91e-07
[1], x1 = 0.5724	–	8.76e-07
[1], x1 = 0.6226	–	8.35e-07
[1], x1 = 0.667	–	7.77e-07
[1], x1 = 0.7036	–	7.29e-07
[1], x1 = 0.7416	–	6.77e-07
[1], x1 = 0.8311	–	5.02e-07
[1], x1 = 0.8985	–	3.43e-07
[1], x1 = 0.9564	–	1.66e-07
[2], x1 = 0.0653	0.0763	–
[2], x1 = 0.1352	0.138	–
[2], x1 = 0.2036	0.191	–
[2], x1 = 0.2679	0.231	–
[2], x1 = 0.326	0.259	–
[2], x1 = 0.3795	0.278	–
[2], x1 = 0.4178	0.287	–
[2], x1 = 0.4635	0.294	–
[2], x1 = 0.5035	0.293	–
[2], x1 = 0.5376	0.29	–
[2], x1 = 0.5674	0.285	–
[2], x1 = 0.5679	0.28	–
[2], x1 = 0.6418	0.26	–
[2], x1 = 0.6886	0.242	–
[2], x1 = 0.7385	0.217	–
[2], x1 = 0.7897	0.189	–
[2], x1 = 0.8433	0.153	–
[2], x1 = 0.8966	0.108	–
[2], x1 = 0.9506	0.0582	–

CCOC(C)=O [ethyl acetate] + CCCCCCC
Details	excess molar enthalpy [kcal/mol]	excess molar volume [m3/mol]
[1], x1 = 0.0808	–	4.63e-07
[1], x1 = 0.143	–	7.33e-07
[1], x1 = 0.2084	–	9.35e-07
[1], x1 = 0.2751	–	1.105e-06
[1], x1 = 0.3329	–	1.204e-06
[1], x1 = 0.3968	–	1.263e-06
[1], x1 = 0.4462	–	1.303e-06
[1], x1 = 0.5057	–	1.309e-06
[1], x1 = 0.5536	–	1.289e-06
[1], x1 = 0.6019	–	1.236e-06
[1], x1 = 0.6506	–	1.163e-06
[1], x1 = 0.6848	–	1.107e-06
[1], x1 = 0.7249	–	1.019e-06
[1], x1 = 0.8166	–	7.67e-07
[1], x1 = 0.8964	–	4.43e-07
[1], x1 = 0.9478	–	2.47e-07
[2], x1 = 0.0803	0.113	–
[2], x1 = 0.1683	0.2	–
[2], x1 = 0.2488	0.27	–
[2], x1 = 0.323	0.317	–
[2], x1 = 0.395	0.346	–
[2], x1 = 0.4614	0.359	–
[2], x1 = 0.5037	0.361	–
[2], x1 = 0.546	0.363	–
[2], x1 = 0.5784	0.357	–
[2], x1 = 0.5813	0.357	–
[2], x1 = 0.6222	0.341	–
[2], x1 = 0.6647	0.322	–
[2], x1 = 0.7146	0.296	–
[2], x1 = 0.7646	0.26	–
[2], x1 = 0.8157	0.217	–
[2], x1 = 0.8649	0.17	–
[2], x1 = 0.9129	0.115	–
[2], x1 = 0.9591	0.0596	–

CCCCCCCCCCCCCCCCC [heptadecane] + CCCOC(C)=O
Details	excess molar enthalpy [kcal/mol]	excess molar volume [m3/mol]
[1], x2 = 0.2332	–	8.02e-07
[1], x2 = 0.3167	–	1.017e-06
[1], x2 = 0.4087	–	1.166e-06
[1], x2 = 0.4759	–	1.235e-06
[1], x2 = 0.5393	–	1.28e-06
[1], x2 = 0.5977	–	1.276e-06
[1], x2 = 0.6463	–	1.246e-06
[1], x2 = 0.6916	–	1.225e-06
[1], x2 = 0.7628	–	1.103e-06
[1], x2 = 0.8202	–	9.42e-07
[1], x2 = 0.891	–	6.77e-07
[1], x2 = 0.9375	–	4.38e-07
[1], x2 = 0.9705	–	2.25e-07
[2], x2 = 0.0838	0.115	–
[2], x2 = 0.1596	0.208	–
[2], x2 = 0.2462	0.301	–
[2], x2 = 0.3255	0.371	–
[2], x2 = 0.3884	0.406	–
[2], x2 = 0.4477	0.435	–
[2], x2 = 0.4925	0.447	–
[2], x2 = 0.5313	0.451	–
[2], x2 = 0.5702	0.451	–
[2], x2 = 0.6288	0.438	–
[2], x2 = 0.6644	0.424	–
[2], x2 = 0.7023	0.403	–
[2], x2 = 0.7423	0.38	–
[2], x2 = 0.7826	0.346	–
[2], x2 = 0.8239	0.308	–
[2], x2 = 0.8654	0.262	–
[2], x2 = 0.9064	0.203	–
[2], x2 = 0.9452	0.138	–
[2], x2 = 0.9772	0.0665	–

CCCCCCCCCCC [undecane] + CCOC(C)=O
Details	excess molar enthalpy [kcal/mol]	excess molar volume [m3/mol]
[1], x2 = 0.0632	–	3.65e-07
[1], x2 = 0.1076	–	5.64e-07
[1], x2 = 0.1921	–	8.99e-07
[1], x2 = 0.2759	–	1.151e-06
[1], x2 = 0.3521	–	1.328e-06
[1], x2 = 0.4213	–	1.429e-06
[1], x2 = 0.4771	–	1.49e-06
[1], x2 = 0.5319	–	1.504e-06
[1], x2 = 0.5859	–	1.504e-06
[1], x2 = 0.6355	–	1.461e-06
[1], x2 = 0.6817	–	1.385e-06
[1], x2 = 0.7223	–	1.311e-06
[1], x2 = 0.7656	–	1.17e-06
[1], x2 = 0.7889	–	1.147e-06
[1], x2 = 0.8628	–	8.46e-07
[1], x2 = 0.9234	–	5.39e-07
[1], x2 = 0.9664	–	2.63e-07
[2], x2 = 0.1003	0.149	–
[2], x2 = 0.1944	0.252	–
[2], x2 = 0.2921	0.343	–
[2], x2 = 0.3767	0.402	–
[2], x2 = 0.4501	0.433	–
[2], x2 = 0.509	0.443	–
[2], x2 = 0.5537	0.441	–
[2], x2 = 0.5965	0.436	–
[2], x2 = 0.6065	0.433	–
[2], x2 = 0.6498	0.413	–
[2], x2 = 0.6942	0.39	–
[2], x2 = 0.7366	0.364	–
[2], x2 = 0.7848	0.326	–
[2], x2 = 0.8361	0.272	–
[2], x2 = 0.8884	0.206	–
[2], x2 = 0.9357	0.141	–
[2], x2 = 0.9742	0.0596	–
